The values that follow are results of earlier work, collected in patent publication US20260224521A1, “BIOMOLECULE FOR TREATMENT OF CORNEAL PATHOLOGIES” (Board of Supervisors of Louisiana State University and …, priority 2019, published 2026).

The test system of the data set is mouse cornea. To be noted: topical eye drops, 3× daily for 96 hours; 2005 (76); cited from earlier work.

Regarding `CC/C=C\C[C@H](O)/C=C/C=C\C/C=C\C/C=C\C/C=C\CCC(=O)O` [17S-HDHA], the “PMNs in the cornea” value was “Increased”, the “formation of the proinflammatory chemokine KC” value was “Decreased” and the rate of re-epithelialization result is “Increased the rate of re-epithelialization”.
